Measurements from PubChem BioAssay AID328 (DTP/NCI, 2004).
Several values for one entry are separate records, joined by “and”; a condition that tells them apart may be missing. Equal values may be shown once. Inconclusive results and toxic doses are left out. How the source made its calls: active means survival T/C of 150% or more; inactive means T/C below 125% in these data.

Test system: BDF1 mice, P388 leukemia ip, median survival T/C
Test: NCI In Vivo Anticancer Drug Screen. Data for tumor model P388 Leukemia (intraperitoneal) in B6D2F1 (BDF1) mice
Settings: endpoint: median survival time, higher = longer survival
Method in brief: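 Reported as T/C, where T is the survival measurement in dosed animals and C the same measurement in vehicle controls.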

[1] = dose: 100.0 mg/kg/injection, schedule: Q04DX003 (ip), vehicle: other
[2] = dose: 12.5 mg/kg/injection, schedule: Q01DX009 (ip), vehicle: saline with Tween-80
[3] = dose: 25.0 mg/kg/injection, schedule: Q01DX009 (ip), vehicle: saline with Tween-80
[4] = dose: 50.0 mg/kg/injection, schedule: Q01DX009 (ip), vehicle: saline with Tween-80
[5] = dose: 100.0 mg/kg/injection, schedule: Q01DX009 (ip), vehicle: saline
[6] = dose: 100.0 mg/kg/injection, schedule: Q01DX009 (ip), vehicle: saline with Tween-80
[7] = dose: 100.0 mg/kg/injection, schedule: Q04DX003 (ip), vehicle: saline
[8] = dose: 200.0 mg/kg/injection, schedule: Q04DX003 (ip), vehicle: saline
[9] = dose: 400.0 mg/kg/injection, schedule: Q04DX003 (ip), vehicle: saline
[10] = dose: 100.0 mg/kg/injection, schedule: Q04DX003 (ip), vehicle: saline with Tween-80

Measured: T/C

O=[N+]([O-])c1ccc2c(c1)CCCC2
inactive: dose: 100.0 mg/kg/injection, schedule: Q01DX009 (ip), vehicle: other 113 % of control | [1] 109 % of control | dose: 200.0 mg/kg/injection, schedule: Q01DX009 (ip), vehicle: other 118 % of control | dose: 200.0 mg/kg/injection, schedule: Q04DX003 (ip), vehicle: other 118 % of control | dose: 400.0 mg/kg/injection, schedule: Q01DX009 (ip), vehicle: other 122 % of control | dose: 400.0 mg/kg/injection, schedule: Q04DX003 (ip), vehicle: other 113 % of control

CC1(C)N=C(N)N=C(N)N1c1ccc(CCC(=O)Nc2ccc(S(=O)(=O)F)cc2)cc1
inactive: dose: 0.88 mg/kg/injection, schedule: Q01DX009 (ip), vehicle: saline with Tween-80 108 % of control | dose: 1.32 mg/kg/injection, schedule: Q01DX009 (ip), vehicle: saline with Tween-80 112 % of control | dose: 2.0 mg/kg/injection, schedule: Q01DX009 (ip), vehicle: saline with Tween-80 116 % of control | dose: 44.0 mg/kg/injection, schedule: Q04DX003 (ip), vehicle: saline sonified 122 % of control | dose: 66.0 mg/kg/injection, schedule: Q04DX003 (ip), vehicle: saline sonified 111 % of control | dose: 100.0 mg/kg/injection, schedule: Q04DX003 (ip), vehicle: saline sonified 111 % of control | dose: 150.0 mg/kg/injection, schedule: Q04DX003 (ip), vehicle: saline sonified 122 % of control | dose: 200.0 mg/kg/injection, schedule: Q01DX009 (ip), vehicle: saline sonified 95 % of control | dose: 400.0 mg/kg/injection, schedule: Q01DX009 (ip), vehicle: saline sonified 90 % of control
active: [2] 150 % of control | [3] 163 % of control | [4] 159 % of control | dose: 100.0 mg/kg/injection, schedule: Q01DX009 (ip), vehicle: saline sonified 240 % of control

COc1cc2ccc3c(c2cc1OC)C(=O)CNC3C (stereo not given)
inactive: dose: 3.13 mg/kg/injection, schedule: Q01DX009 (ip), vehicle: saline 104 % of control | dose: 3.13 mg/kg/injection, schedule: Q04DX003 (ip), vehicle: saline 109 % of control | dose: 6.25 mg/kg/injection, schedule: Q01DX009 (ip), vehicle: saline 100 % of control | dose: 6.25 mg/kg/injection, schedule: Q04DX003 (ip), vehicle: saline 100 % of control | dose: 12.5 mg/kg/injection, schedule: Q01DX009 (ip), vehicle: saline 100 % of control | dose: 12.5 mg/kg/injection, schedule: Q04DX003 (ip), vehicle: saline 109 % of control

O=N[O-].O=N[O-].[Co].[NH-]CC[N-]CCO.[NH-]CC[N-]CCO
inactive: dose: 12.5 mg/kg/injection, schedule: Q01DX009 (ip), vehicle: water 102 % of control and 115 % of control | dose: 40.0 mg/kg/injection, schedule: Q01DX009 (ip), vehicle: water 118 % of control | dose: 50.0 mg/kg/injection, schedule: Q01DX009 (ip), vehicle: water 100 % of control and 111 % of control | dose: 100.0 mg/kg/injection, schedule: Q01DX009 (ip), vehicle: water 101 % of control

Cc1c(C(=O)O)nc(CC(O)C(Cl)(Cl)Cl)[nH]c1=O (stereo not given)
inactive: dose: 25.0 mg/kg/injection, schedule: Q04DX003 (ip), vehicle: Klucel (hydroxypropylcellulose) (HPC) 98 % of control | dose: 50.0 mg/kg/injection, schedule: Q04DX003 (ip), vehicle: Klucel (hydroxypropylcellulose) (HPC) 97 % of control | dose: 100.0 mg/kg/injection, schedule: Q04DX003 (ip), vehicle: Klucel (hydroxypropylcellulose) (HPC) 103 % of control | dose: 200.0 mg/kg/injection, schedule: Q04DX003 (ip), vehicle: Klucel (hydroxypropylcellulose) (HPC) 100 % of control | dose: 400.0 mg/kg/injection, schedule: Q04DX003 (ip), vehicle: Klucel (hydroxypropylcellulose) (HPC) 96 % of control

COc1ccc(C(=O)N(N)C2CCCCC2)cc1
inactive: dose: 50.0 mg/kg/injection, schedule: Q01DX009 (ip), vehicle: saline 105 % of control | [5] 105 % of control | dose: 200.0 mg/kg/injection, schedule: Q01DX009 (ip), vehicle: saline 100 % of control

CCCCCCOC(=O)/C=C(/C)OCCCCCC
inactive: [4] 100 % of control | dose: 87.5 mg/kg/injection, schedule: Q01DX009 (ip), vehicle: saline with Tween-80 113 % of control | [6] 105 % of control | [7] 108 % of control | dose: 175.0 mg/kg/injection, schedule: Q01DX009 (ip), vehicle: saline with Tween-80 100 % of control | [8] 104 % of control | dose: 265.0 mg/kg/injection, schedule: Q01DX009 (ip), vehicle: saline with Tween-80 113 % of control | dose: 400.0 mg/kg/injection, schedule: Q01DX009 (ip), vehicle: saline with Tween-80 118 % of control | [9] 108 % of control

CNC1(c2ccccc2)C(=O)CC2CCC1C2 (stereo not given)
inactive: dose: 25.0 mg/kg/injection, schedule: Q01DX001 (ip), vehicle: Klucel (hydroxypropylcellulose) (HPC) 105 % of control | dose: 50.0 mg/kg/injection, schedule: Q01DX001 (ip), vehicle: Klucel (hydroxypropylcellulose) (HPC) 105 % of control | dose: 100.0 mg/kg/injection, schedule: Q01DX001 (ip), vehicle: Klucel (hydroxypropylcellulose) (HPC) 100 % of control

C=C(C)C(=O)O[C@H]1CC2=CC(CC(C)=C[C@H]3OC(=O)C(=C)C13)OC2=O (stereo not given in full)
inactive: dose: 12.5 mg/kg/injection, schedule: Q01DX001 (ip), vehicle: saline with Tween-80 109 % of control | dose: 25.0 mg/kg/injection, schedule: Q01DX001 (ip), vehicle: saline with Tween-80 120 % of control | dose: 50.0 mg/kg/injection, schedule: Q01DX001 (ip), vehicle: saline with Tween-80 107 % of control and 111 % of control

Cc1cc(Cc2cc(C)c(C)c(C)c2C)c(C)c(C)c1C
inactive: [2] 93 % of control | [3] 100 % of control | [4] 98 % of control | [6] 97 % of control

Cn1nc(N)c2ncc(C(Cl)(Cl)Cl)nc21
inactive: [3] 91 % of control | dose: 50.0 mg/kg/injection, schedule: Q04DX003 (ip), vehicle: saline with Tween-80 105 % of control | [10] 90 % of control

CNc1ccc([N+](=O)[O-])c2no[n+]([O-])c12
inactive: dose: 15.0 mg/kg/injection, schedule: Q01DX009 (ip), vehicle: saline with Tween-80 90 % of control | dose: 30.0 mg/kg/injection, schedule: Q01DX009 (ip), vehicle: saline with Tween-80 93 % of control | dose: 60.0 mg/kg/injection, schedule: Q01DX009 (ip), vehicle: saline with Tween-80 102 % of control

Cc1cc2cc3c(=O)[nH]c(=O)nc-3n(CC(O)C(O)C(O)COP(=O)(O)O)c2cc1C (stereo not given)
inactive: dose: 66.0 mg/kg/injection, schedule: Q01DX009 (ip), vehicle: saline 100 % of control | [5] 95 % of control and 100 % of control | [7] 100 % of control | [8] 113 % of control | [9] 100 % of control

NC(=O)Oc1cc(OC(N)=O)cc(N(CCCl)CCCl)c1
active: [2] 158 % of control | [3] 181 % of control | dose: 25.0 mg/kg/injection, schedule: Q04DX003 (ip), vehicle: other 179 % of control | [4] 168 % of control | dose: 50.0 mg/kg/injection, schedule: Q04DX003 (ip), vehicle: other 186 % of control | [1] 216 % of control

CC(=O)C[n+]1ccccc1C(c1ccccc1)c1ccccc1
inactive: dose: 12.5 mg/kg/injection, schedule: Q01DX005 (ip), vehicle: saline 101 % of control | dose: 25.0 mg/kg/injection, schedule: Q01DX005 (ip), vehicle: saline 92 % of control | dose: 50.0 mg/kg/injection, schedule: Q01DX005 (ip), vehicle: saline 101 % of control

c1ccc2cc(OCC3CO3)c(OCC3CO3)cc2c1 (stereo not given)
active: dose: 30.0 mg/kg/injection, schedule: Q01DX005 (ip), vehicle: saline with Tween-80 161 % of control | dose: 60.0 mg/kg/injection, schedule: Q01DX005 (ip), vehicle: saline with Tween-80 157 % of control | dose: 120.0 mg/kg/injection, schedule: Q01DX005 (ip), vehicle: saline with Tween-80 176 % of control

COc1cc(/C=N\N=C\c2ccc(O)c(OC)c2)ccc1O
inactive: dose: 100.0 mg/kg/injection, schedule: Q01DX001 (ip), vehicle: saline with Tween-80 100 % of control | dose: 200.0 mg/kg/injection, schedule: Q01DX001 (ip), vehicle: saline with Tween-80 104 % of control | dose: 400.0 mg/kg/injection, schedule: Q01DX001 (ip), vehicle: saline with Tween-80 100 % of control

COC(=O)/C(C#N)=C/c1c[nH]c2ccccc12
inactive: [10] 100 % of control | dose: 200.0 mg/kg/injection, schedule: Q04DX003 (ip), vehicle: saline with Tween-80 109 % of control | dose: 400.0 mg/kg/injection, schedule: Q04DX003 (ip), vehicle: saline with Tween-80 100 % of control
